Laboratory results published in EP0136464A2, “Therapeutic compositions for oral use containing stable S-Adenosy1-L-Methionine salts” (BIORESEARCH S.p.A., priority 1983, dated 1985).
Like-named read-outs stand apart in the source and are kept apart here.

How the values were obtained:
[1] = SAMe concentration in portal and aortic plasma after intestinal or oral (gastric probe) administration; type: in vivo, male Sprague-Dawley rats; settings: rat, SAMe-tri-p. toluenesulphonate, reduced by control values; for concentration at 1 h: 60 min; for concentration at 1.5 h: 90 min; for concentration at 2 h: 120 min; for concentration at 3 h: 180 min; for concentration at 4 h: 240 min
Experimental: The values given relate to tests carried out with SAMe-tri-p. toluenesulphonate, but substantially identical results were obtained with other known SAMe salts.
The drug concentrations in the portal or aortic plasma were evaluated as the absorption parameters.
The experiment was carried out on 72 male Sprague-Dawley rats of weight 210-260 g, which had fasted since the previous evening.
The animals, anesthetised with ether, were operated on in order to insert a capsule into the proximal jejunum. The incision in the intestinal wall was closed by ligature, and the animals were sutured.
The treatment scheme was as follows: • Intestinal administration: A capsule containing a weighed SAMe quantity corresponding to a dose of 32 mg/kg of body weight was inserted into the intestine, and 5 ml of H20/kg were administered by means of a gastric probe. • Oral administration: An empty capsule was inserted into the intestine, and 32 mg of SAMe/kg in aqueous solution (5 ml/kg) were • administered by means of a gastric probe. Controls: An empty capsule was inserted into the intestine, and 5 ml of H20/kg of body weight were administered by means of a gastric probe.
After 10, 20, 40, 60, 90, 120, 180 and 240 minutes from administration, 3 animals were sacrificed at a time in order to withdraw portal and aortic blood.
The SAMe concentrations in the plasma were determined by the Baldessarini and Kopin method (J. Neuroch. 13: 769, 1966).
The values represent the mean + standard error of 3 observations, reduced by the values found for the controls.

[2] = system: Edema induced by carrageen in the rat; assay: Edema induced by carrageen in the rat (anti-inflammatory activity); type: in vivo, Male Sprague-Dawley rats
Experimental: (§1) In the experiments carried out on animals which received the SAMe orally, the drug was dissolved in physiological solution and administered by gastric probe in a volume of 0.5 ml/100 g of body weight. An equal volume of physiological solution was administered to the controls.
(§2) In the experiments in which SAMe was administered intraduodenally, the animals anesthetised with ether were subjected to laparotomy to allow the insertion into the duodenum of gelatin capsules (size 4) containing the product.
(§3) After inserting the capsule, the duodenum was sutured carefully so as not to traumatise the tissue and was then returned to its seat, the muscular and cutaneous layers then being re-composed and sutured.
(§4) The control animals received an empty gelatin capsule by the same procedure.
The antiphlogistic and analgesic activity of SAMe were evaluated by the following tests: • A. Anti-inflammatory activity • 1) Edema induced by carrageen in the rat.
Male Sprague-Dawley rats of about 170 g weight were used, having fasted since the evening preceding the experiment. Edema was induced by carrageen using the method described by Winter et al. (Proc. Soc. Exp. Biol. Med. 111, 544 (1962)).
The SAMe was administered orally one hour before the carrageen at doses of 25 and 50 mg/kg, and intraduodenally at doses of 25 and 50 mg/kg 80 minutes before the phlogogenic agent. […]

[3] = system: Reaction to heat, tail flick test in the rat; assay: Reaction to heat, tail flick test in the rat (analgesic activity); type: in vivo, male Sprague-Dawley rats
Experimental: as §1, §2, §3, §4
1) Reaction to heat, tail flick test in the rat.
The analgesic activity of SAMe was evaluated in male Sprague-Dawley rats of about 190 g weight by the method of D'Amour and Smith (J. Pharmacol. Exp. Theor. 71, 74 (1941)).
The SAMe was administered either orally or in gelatin capsules into the duodenum in doses of 50 and 100 mg/kg.
Morphine was used as the comparison drug and was administered under the cutis at a dose of 5 mg/kg.
The analgesic activity was determined 30, 60 and 120 minutes after administration of the drugs.
The results represent the mean + S.E. for the number of animals indicated in parentheses. The morphine was administered under the cutis to rats which received one empty capsule into the duodenum.

[4] = aortic plasma, po, 32 mg/kg aqueous solution by gastric probe, read-out: SAMe concentration in the plasma, Oral treatment, Aortic
[5] = aortic plasma, 32 mg/kg capsule into proximal jejunum, read-out: SAMe concentration in the plasma, Intestinal treatment, Aortic
[6] = portal plasma, po, 32 mg/kg aqueous solution by gastric probe, read-out: SAMe concentration in the plasma, Oral treatment, Portal
[7] = portal plasma, 32 mg/kg capsule into proximal jejunum, read-out: SAMe concentration in the plasma, Intestinal treatment, Portal

C[S+](CC[C@H](N)C(=O)[O-])C[C@H]1O[C@@H](n2cnc3c(N)ncnc32)[C@H](O)[C@@H]1O (stereo partly drawn) [SAMe, Sulpho-adenosyl-L-methionine]
concentration at 10 min [1, 4]: 1100 ng/mL
concentration at 20 min [1, 4]: 780 ng/mL
concentration at 40 min [1, 4]: 720 ng/mL
concentration at 1 h [1, 4]: 700 ng/mL
concentration at 1.5 h [1, 4]: 680 ng/mL
concentration at 2 h [1, 4]: 680 ng/mL
concentration at 3 h [1, 4]: 660 ng/mL
concentration at 4 h [1, 4]: 640 ng/mL
concentration at 10 min [1, 5]: 13100 ng/mL
concentration at 20 min [1, 5]: 8630 ng/mL
concentration at 40 min [1, 5]: 4390 ng/mL
concentration at 1 h [1, 5]: 1870 ng/mL
concentration at 1.5 h [1, 5]: 1280 ng/mL
concentration at 2 h [1, 5]: 880 ng/mL
concentration at 3 h [1, 5]: 690 ng/mL
concentration at 4 h [1, 5]: 530 ng/mL
concentration at 10 min [1, 6]: 2930 ng/mL
concentration at 20 min [1, 6]: 870 ng/mL
concentration at 40 min [1, 6]: 840 ng/mL
concentration at 1 h [1, 6]: 610 ng/mL
concentration at 1.5 h [1, 6]: 540 ng/mL
concentration at 2 h [1, 6]: 520 ng/mL
concentration at 3 h [1, 6]: 520 ng/mL
concentration at 4 h [1, 6]: 460 ng/mL
concentration at 10 min [1, 7]: 25500 ng/mL
concentration at 20 min [1, 7]: 9390 ng/mL
concentration at 40 min [1, 7]: 2990 ng/mL
concentration at 1 h [1, 7]: 2440 ng/mL
concentration at 1.5 h [1, 7]: 1540 ng/mL
concentration at 2 h [1, 7]: 770 ng/mL
concentration at 3 h [1, 7]: 770 ng/mL
concentration at 4 h [1, 7]: 640 ng/mL
edema inhibition ([2]; intraduodenal administration, 50 mg/kg, 80 minutes before the phlogogenic agent): statistically significant edema inhibition
edema development ([2]; oral administration, 25 and 50 mg/kg, one hour before the carrageen, versus controls): not able to significantly modify the edema development
Reaction time in minutes at various times after treatment ([3]; administered into the duodenum, 50 mg/kg, 30 min): 8.5 min
Reaction time in minutes at various times after treatment ([3]; administered into the duodenum, 50 mg/kg, 60 min): 8.2 min
Reaction time in minutes at various times after treatment ([3]; administered into the duodenum, 50 mg/kg, 120 min): 8.3 min
Reaction time in minutes at various times after treatment ([3]; administered into the duodenum, 50 mg/kg, T0): 4.8 min
Reaction time in minutes at various times after treatment ([3]; administered into the duodenum, 100 mg/kg, 30 min): 10.2 min
Reaction time in minutes at various times after treatment ([3]; administered into the duodenum, 100 mg/kg, 60 min): 9.6 min
Reaction time in minutes at various times after treatment ([3]; administered into the duodenum, 100 mg/kg, 120 min): 8.5 min
Reaction time in minutes at various times after treatment ([3]; administered into the duodenum, 100 mg/kg, T0): 5.0 min
Reaction time in minutes at various times after treatment ([3]; administered orally, 50 mg/kg, 30 min): 5.04 min
Reaction time in minutes at various times after treatment ([3]; administered orally, 50 mg/kg, 60 min): 4.09 min
Reaction time in minutes at various times after treatment ([3]; administered orally, 50 mg/kg, 120 min): 4.20 min
Reaction time in minutes at various times after treatment ([3]; administered orally, 50 mg/kg, T0): 4.60 min
Reaction time in minutes at various times after treatment ([3]; administered orally, 100 mg/kg, 30 min): 4.46 min
Reaction time in minutes at various times after treatment ([3]; administered orally, 100 mg/kg, 60 min): 4.73 min
Reaction time in minutes at various times after treatment ([3]; administered orally, 100 mg/kg, 120 min): 4.25 min
Reaction time in minutes at various times after treatment ([3]; administered orally, 100 mg/kg, T0): 4.41 min
reaction times, difference between treated animals and the controls ([3]; intraduodenal administration, 100 mg/kg, 30 minutes after treatment): highly significant difference (P<0.01)
reaction time towards heat with respect to the controls ([3]; oral administration, 50 and 100 mg/kg): not able to modify the reaction time towards heat

CN1CC[C@]23c4c5ccc(O)c4O[C@H]2[C@@H](O)C=C[C@H]3[C@H]1C5 [Morphine, reference compound]
analgesic activity with respect to the controls ([3]; in vivo, 5 mg/kg): powerful analgesic activity (P<0.01)
